This is an account of results in patent US20030028906A1, “Gene control” (priority 1995, published 2003).

One data set concerns β-galactosidase activity. In words: β-galactosidase staining of tissue sections from non-transgenic controls treated with 3-MC. Type of data set: in vivo, mouse. The source says:
All timings in this protocol are critical.

In another data set the test system is modified Ah receptor. In words: Induction of the transgene in DBA mice. The format is in vivo, mouse. From the text:
(§1) In addition to the use of this promoter as a general regulatable system for the expression of transgenes this strategy can be exploited to obtain expression targeted to specific cell types. Thus, for example, when the transgene is incorporated into cells containing a modified hydrocarbon receptor, the inducability of the transgene is modulated. […] In addition, the introduction of an Ah receptor responsive to 3-methylcholanthrene into a specific cell, e.g. through the use of a tissue-specific promoter element, will allow tissue-specific induction of a transgene in this mouse on administration of 3-methylcholanthrene. This strategy exploits the fact that the Ah receptor in DBA mice through mutation is non-responsive to certain classes of agents which induce by this mechanism. […] Therefore, using a combination of different forms of the Ah receptor with different types of inducing agent will allow much more precise regulation of transgene expression in cells.

The subject of data set [1] is CYP1A1 dioxin-responsive promoter coupled to CAT reporter gene. The conditions noted are these: 2.58 kbp mouse CYP1A1 fragment-CAT transgenic mice, cited from earlier work.
In data set [2] the test system is CYP1A1/β-galactosidase promoter/reporter. The data set can be described thus: β-galactosidase staining of tissue sections from transgenic mice carrying pAhIR1β-gal after 3-MC induction. The conditions noted are these: for β-Galactosidase staining intensity: mice carrying pAHIR1, 3-MC 40 μg/g once a day for 3 days; for induction of lacZ expression in the liver: 9 kb rat CYP1A1 promoter-lacZ transgenic mice, IP 40 mg/kg for 3 days, 40 mg/kg. From the text: The protocol described below has been adapted to analyse the β-galactosidase expression from transgenic mice and in this regard determine the activity of the P450 1A1 promoter which is effectively driving the expression of this transgene in response to induction of P450 1A1 by the carcinogenic agent 3-methylcholanthrene. All timings in this protocol are critical.
When performing this technique it is essential to incorporate a positive control into the reaction where a tissue sample which is a known expresser of β-galactosidase is treated in an identical manner to that of the test tissues. […] The positive control used in these experiments was a small intestine sample which was a known high expressor of the detection enzyme.
1) The mouse under test was killed by cervical dislocation and the organs required were removed using a sterile scalpel. A small representative piece of mouse organ was fixed on to moistened cork using commercial adhesive. The tissue sample on the cork was then frozen in liquid nitrogen chilled freezing spray (Histological Supplies LTD) for approximately 30 seconds. The tissue sample was then double wrapped in parafilm, placed in a plastic bag, sealed and snap frozen in liquid nitrogen.
4) The metal chuck was placed in the cryostat holder and turned until the tip of the tissues touched the front of the cutting blade. The cryostat was set to obtain small sections approximately 8 microns thickness. By turning the handle of the cryostat small sections of tissue were obtained. Sections were continually taken until a representative section of tissue was obtained. The antiroll plate was then placed against the blade and a section to be harvested was cut.
9) Slides were produced as described using the cryostat and the tissue was fixed in 0.5% glutaraldehyde (in PBS) for 1 day at 4° C. 10) The tissue was then incubated in PBS +2mM MgCl2+30% sucrose at 4° C. overnight.
13) 2-3 hours in X-gal solution at 37° C. or even overnight.
19) The slides were then mounted in DPX and viewed under a microscope. It was important at this stage that the slides were never permitted to dry out since this will affect the quality of the results. The slides should be continually dipped into the histoclear solution to prevent this occurring while the slides are being prepared.
The expected results from the β-galacotsidase staining assay are areas of pink which uniformly stain the tissue section and small areas of blue in the tissue section which indicate areas where X-gal has been metabolised by the β-galactosidase enzyme.
The inducibility of expression. The pAhIR1βgal transgene in the liver was examined after administration of 3-methylcholanthrene (3-mc). The inducing agent was administered IP at a dosage of 40 mg/kg for 3 days and the animals were sacrificed for expression on day four. The induction in the transgenic animals was controlled by:
a) administration of corn oil to transgenic mice,
b) the administration of 3-methylcholanthrene (3-mc) to non-transgenic littermates.
lacZ expression was also investigated in a number of other tissues. The same procedure for sectioning and staining tissue sections was employed.

The next data set has as its system Ah receptor. The data set can be described thus: Induction of the transgene in C57 BL6 mice. Type of data set: in vivo, mouse.
From the text: as §1

Regarding `Cc1ccc2cc3c(ccc4ccccc43)c3c2c1CC3` [3-methylcholanthrene], the β-Galactosidase staining intensity result in the data set with β-galactosidase activity (Duodenum) is “+”; in the data set with β-galactosidase activity (Ileum), “+”; in the data set on β-galactosidase activity (Jejunum) it was “+”; in the data set on β-galactosidase activity (Kidney), “+”; in data set [2] (Adrenal gland), “+++”; in data set [2] (Colon) it was “+”. In addition, the β-Galactosidase staining intensity entry is “+++” in data set [2] (Duodenum); “+” in data set [2] (Forestomach); “+++” in data set [2] (Ileum); “+++” in data set [2] (Jejunum); “++” in data set [2] (Kidney); “++++” in data set [2] (Liver). The β-Galactosidase staining intensity entry in data set [2] (Lung) is “+”; in data set [2] (Oesophagus), “++”; in data set [2] (Ovary) it was “+”; in data set [2] (Pancreas), “+”; in data set [2] (Spleen), “++”; in data set [2] (Stomach), “+”. The β-Galactosidase staining intensity entry in data set [2] (Testes) is “+”. The “induction of the transgene” value with modified Ah receptor is “not an inducer of the transgene”; in the data set with Ah receptor, “an inducer of the transgene”. Moreover, the “increase of hepatic expression levels (CAT reporter)” value in data set [1] (liver, versus mock-induction) is recorded as ≤ 10,000 fold. Further, the “induction of CAT expression” value in data set [1] (spleen, small bowel, kidney and lung) was “More modest levels of induction”. Besides, in data set [2] (Liver, Kidney, Brain (specific regions), Duodenum, Jejunum, Ileum, Lung, Spleen, Oesophagus, Colon, Pancreas, Adrenal Gland, Ovary), the “3-mc induced lacZ expression in tissues” value was “detected”. In addition, the “induction of lacZ expression in the liver” value in data set [2] (listed as 3-mc) was “very high”; in data set [2] (listed as 3-methyl-cholanthene) it was “massive induction”. The “induction of expression in spleen and bowel” value in data set [2] (spleen and bowel, 9 kb rat CYP1A1 promoter transgenic mice) is recorded as “substantial induction”.

Turning to `Clc1cc2c(cc1Cl)Oc1cc(Cl)c(Cl)cc1O2` [tetrachlorodibenzodioxin], the “induction of the transgene” value with modified Ah receptor is reported as “induction can still be obtained”.
